From ChEMBL document CHEMBL3885861, “Open TG-GATES”

Organism: Rattus norvegicus
Experiment: Open TG-GATES - Regimen: Daily Repeat
Type: toxicity, organism-based, Sprague-Dawley
Design: regimen Daily Repeat, gender Male, age 6 weeks
Conditions: in vivo, po, 150 mg/kg, route gavage, dose level High; for APTT / Bas / Eos / Fbg / Hb / Ht / Lym / MCH / MCHC / MCV / Mono / Neu / PT / Plat / RBC / Ret / WBC: tissue Blood; for KIDNEY_L / KIDNEY_R / KIDNEY_TOTAL: tissue Kidney; for LIVER: tissue Liver; for A/G / ALP / ALT / AST / BUN / CRE / Ca / Cl / DBIL / GLC / IP / K / LDH / Na / PL / RALB / TBIL / TC / TG / TP / gamma-GTP: tissue Plasma

## CN(C)CCC=C1c2ccccc2CCc2ccccc21 [AMITRIPTYLINE]
72 h, time 3 day
  TERMINAL_BW: 200.8 g
  APTT: 15 s
  Bas: 0.2%
  Eos: 1.2%
  Fbg: 288.6 mg/dL
  Hb: 14.4 g/dL
  Ht: 43.5%
  Lym: 79.6%
  MCH: 20.5 pg
  MCHC: 33.2%
  MCV: 61.8 fL
  Mono: 2.4%
  Neu: 16.2%
  PT: 16 s
  Plat: 125 x10_4/uL
  RBC: 705 x10_4/ul
  Ret: 4.5%
  WBC: 87.2 x10_2/uL
  KIDNEY_L: 0.9 g
  KIDNEY_R: 0.9 g
  KIDNEY_TOTAL: 1.8 g
  LIVER: 9.1 g
  A/G: 0.8
  ALP: 1755.4 IU/L
  ALT: 45.4 IU/L
  AST: 63 IU/L
  BUN: 13.8 mg/dL
  CRE: 0.2 mg/dL
  Ca: 10.7 mg/dL
  Cl: 106.2 meq/L
  DBIL: 0.016 mg/dL
  GLC: 174.4 mg/dL
  IP: 8 mg/dL
  K: 4.4 meq/L
  LDH: 86.2 IU/L
  Na: 143.8 meq/L
  PL: 155.8 mg/dL
  RALB: 2.6 g/dL
  TBIL: 0.052 mg/dL
  TC: 94.2 mg/dL
  TG: 93 mg/dL
  TP: 5.8 g/dL
  gamma-GTP: 0.6 IU/L
[…], time 7 day
  TERMINAL_BW: 206.8 g
  APTT: 16.2 s
  Bas: 0%
  Eos: 1.4%
  Fbg: 413.4 mg/dL
  Hb: 15.3 g/dL
  Ht: 45.5%
  Lym: 70.8%
  MCH: 20.6 pg
  MCHC: 33.5%
  MCV: 61.6 fL
  Mono: 2.4%
  Neu: 24.6%
  PT: 15.9 s
  Plat: 108.8 x10_4/uL
  RBC: 740.8 x10_4/ul
  Ret: 3.1%
  WBC: 99.3 x10_2/uL
  KIDNEY_L: 0.9 g
  KIDNEY_R: 1 g
  KIDNEY_TOTAL: 1.9 g
  LIVER: 9.5 g
  A/G: 0.8
  ALP: 1572.2 IU/L
  ALT: 42.6 IU/L
  AST: 64.2 IU/L
  BUN: 14.4 mg/dL
  CRE: 0.2 mg/dL
  Ca: 10.6 mg/dL
  Cl: 104.8 meq/L
  DBIL: 0.008 mg/dL
  GLC: 169.2 mg/dL
  IP: 8 mg/dL
  K: 4.1 meq/L
  LDH: 68.2 IU/L
  Na: 143.8 meq/L
  PL: 144.6 mg/dL
  RALB: 2.7 g/dL
  TBIL: 0.042 mg/dL
  TC: 97 mg/dL
  TG: 29.6 mg/dL
  TP: 5.9 g/dL
  gamma-GTP: 0.8 IU/L
[…], time 14 day
  TERMINAL_BW: 250.8 g
  APTT: 16.2 s
  Bas: 0.6%
  Eos: 0.8%
  Fbg: 326.6 mg/dL
  Hb: 15 g/dL
  Ht: 44.7%
  Lym: 76.6%
  MCH: 19.7 pg
  MCHC: 33.6%
  MCV: 58.6 fL
  Mono: 2.4%
  Neu: 19.2%
  PT: 16.6 s
  Plat: 110.7 x10_4/uL
  RBC: 763.4 x10_4/ul
  Ret: 2.8%
  WBC: 128.1 x10_2/uL
  KIDNEY_L: 1 g
  KIDNEY_R: 1 g
  KIDNEY_TOTAL: 2 g
  LIVER: 12.8 g
  A/G: 0.8
  ALP: 1690.2 IU/L
  ALT: 39.8 IU/L
  AST: 59.2 IU/L
  BUN: 15.8 mg/dL
  CRE: 0.2 mg/dL
  Ca: 10.9 mg/dL
  Cl: 104 meq/L
  DBIL: 0.012 mg/dL
  GLC: 164.2 mg/dL
  IP: 7.6 mg/dL
  K: 4.3 meq/L
  LDH: 51.2 IU/L
  Na: 143.6 meq/L
  PL: 135 mg/dL
  RALB: 2.6 g/dL
  TBIL: 0.042 mg/dL
  TC: 78.6 mg/dL
  TG: 62.8 mg/dL
  TP: 6 g/dL
  gamma-GTP: 0.6 IU/L
[…], time 28 day
  TERMINAL_BW: 303.4 g
  APTT: 22.2 s
  Bas: 0.3%
  Eos: 1%
  Fbg: 311.3 mg/dL
  Hb: 15.8 g/dL
  Ht: 46.1%
  Lym: 82%
  MCH: 19.1 pg
  MCHC: 34.3%
  MCV: 55.9 fL
  Mono: 1.7%
  Neu: 14%
  PT: 16.4 s
  Plat: 97.9 x10_4/uL
  RBC: 824.3 x10_4/ul
  Ret: 2%
  WBC: 104.7 x10_2/uL
  KIDNEY_L: 1.2 g
  KIDNEY_R: 1.2 g
  KIDNEY_TOTAL: 2.4 g
  LIVER: 16.8 g
  A/G: 0.9
  ALP: 1692.3 IU/L
  ALT: 39.7 IU/L
  AST: 57.7 IU/L
  BUN: 14.7 mg/dL
  CRE: 0.2 mg/dL
  Ca: 10.7 mg/dL
  Cl: 103.7 meq/L
  DBIL: 0.0167 mg/dL
  GLC: 174 mg/dL
  IP: 7.1 mg/dL
  K: 4 meq/L
  LDH: 50 IU/L
  Na: 143 meq/L
  PL: 97.7 mg/dL
  RALB: 2.9 g/dL
  TBIL: 0.0467 mg/dL
  TC: 56.3 mg/dL
  TG: 35.3 mg/dL
  TP: 6.3 g/dL
  gamma-GTP: 0.7 IU/L
